Test results published in patent publication US8058460B2, “Near infrared fluorophore for the selective labelling of membranes in cells” (Universität Heidelberg, priority 2006, dated 2011).

Tests used:
[1] = system: cell membranes of fixed cells; test: In vitro labelling of fixed cells; assay type: cell-based; details: formaldehyde-fixed cells, 5 μM in 1×PBS, 5 minutes at 37° C.
Method: Staining the cell membranes of fixed cells is also compatible with KAYA1. For staining, the cells are cultured at the same conditions as described for in vivo labelling. The cells are fixed with HEPEM buffer containing 3.7% formaldehyde, 65 mM PIPES, 30 mM HEPES, 10 mM EGTA, 2 mM MgCl2, pH 6.9 for 15 min. Then the cells are washed twice with 1×PBS for 7.5 min. Finally the cell membranes are stained with KAYA1 (5 μM in 1×PBS) for 5 minutes at 37° C., washed with 1×PBS and covered with Vectashield.
(§1) The System used was a Leica DM IRBE (TSC/SP2) microscope operating with a helium/neon laser. Detection of all probes was visualized with the laser emission line 633 nm, the detection window was realized between 650 nm-800 nm.

[2] = system: membranes of live HeLa cells; test: In vivo labelling of live cells, confocal laser scanning microscopy; assay type: cell-based; details: live HeLa cells after incubation with KAYA1 labelling solution (FIGS. 2a to 2c)
Method: A protocol for the labelling of live cells was optimized for cultured HeLa cells (epithelial, cervical carcinoma), for LnCAP (Prostatacancer, fibroblasts) and VH7 (foreskin fibroblasts) that are adhering to coverslips. Cells are cultured on coverslips in DEMEM (VH7, HeLa) RPMI (LnCAP) with 10% foetal calf serum, 1 mM glutamine and antibiotics and incubated at 37° C. in an atmosphere of 5% CO2. A 5 μM solution of KAYA1 is prepared in a HEPES-Glucose buffer medium containing 115 mM NaCl, 1.2 mM CaCl2, 1.2 mM MgCl2, 1.2 mM K2HPO4, 20 mM HEPES, 10 mM Glucose, pH 7.4. After removing the cell medium the cells are incubated with the labeling solution for 1 minute at 37° C. The labeling solution is removed, the cells washed in 1×PBS and incubated with the cell medium, prior to analysis.
as §1
CLSM allows the blur from out of focus regions of the fluorescent specimen to be blocked, resulting in crisp, sharp images from well defined planes in the axial direction. Therefore the images presented here show well defined optical sections in z-axis of the microscope.

Solubility of KAYA1 = assay type: physicochemical
Method: The Boc protecting group of compound A is cleaved with trifluoro acetic acid (6.7 ml, 87 mmol) in methanol (3 ml, 74 mmol) for 18 hours at room temperature. After evaporation and recrystallization in anisole KAYA1 was characterized by electrospray mass spectrometry: (Mfound 389.1245 m/e, 391.1611 m/e, Mcalc 388.12 m/e, 390.12 m/e); 1H NMR spectroscopy (CD3OD): S=1.39 ppm (m, 4H), 1.59 ppm (m, 2H), 1.64 ppm (m, 2H), 2.80 ppm (t, 2H), 3.24 ppm (t, 2H), 7.03 ppm (d, 1H), 7.08 ppm (d, 1H), 7.42 ppm (d, 1H), 7.65 ppm (d, 1H), 7.92 ppm (s, 1H); UV-Vis spectrophotometry (Absmax: 574 nm and 623 nm) and fluorimetry (Emmax: 660 nm).

HeLa cell = test: Colocalization experiments with wheat-germ agglutinin (WGA); assay type: cell-based; details: in vivo stains with KAYA1 compared with WGA in fixed cells (FIGS. 2a to 2c, 3a to 3c)
Source text: Wheat-germ agglutinin (WGA) is a glycoprotein (lectin) that recognizes and binds to specific glycoconjugates such as N-acetylneuraminic acid, N-acetyl glucosamine, membrane glycoprotein, chitin, cartilage, glucosamineglycans, glycolipids, and glycoproteins with sialic acid residues (cf. Monsigny M., Roche A-C., Sene C., raget-Dana R., Delmotte F., Sugar-Lectin Interactions: How does Wheat-germ Agglutinin bind Sialoglycoconjugates?, Eur. J. Biochem., 1980, (104), 147-153; Wright C S., Crystal structure of a wheat germ agglutinin/glycophorin-sialoglycopeptide receptor complex. Structural Basis for cooperative lectin-cell binding, J. Biol. Chem., 1992, 267(20), 14345-52). WGA is commonly used to stain the golgi apparatus, nuclear envelop and plasma membrane of fixed cells.
For the colocalization experiments the cells are stained with KAYA1 at the same conditions as described for in vivo labelling. Then the cells are fixed with HEPEM buffer and the membranes of the cells are permeabilized 30 min at 4° C. with 50 ml 1×PBS containing 50 mg Saponin. After washing the cells with 1×PBS for 5 min at room temperature the cells are incubated 15 min with 50 μg/ml WGA at 37° C. Finally the cells are washed with 1×PBS and covered with Vectashield, prior to analysis.

NCCCCCCNc1ccc(O)c2c1C(=O)c1c(O)ccc(Cl)c1C2=O [KAYA1, 1-(6-amino-hexylamino)-5-chloro-4,8-dihydroxy-anthraquinone]
staining of cell membranes of fixed cells [1]: compatible
membrane structures visualized by the dye [2]: visualizes the cytoplasmatic membrane, the nuclear membrane and the membrane of certain organelles such as endoplasmatic reticulum and golgi apparatus
solubility in methanol (Solubility of KAYA1; methanol): soluble
solubility in water (Solubility of KAYA1; water): moderately soluble
similarity of stained regions with binding regions of WGA (HeLa cell): high similarity with the specific binding regions of WGA
